Assay results as given in US4281012A, “[4H]-1,3-Benzodioxin-2-carboxylic acids” (Roussel Uclaf, priority 1978, dated 1981).

Assays:
[1] = system: male rats of the Sprague Dawley S.P.F. strain; experiment: Hypolipemiant activity in rats on sucrose- and cholesterol-rich regime, % variation of levels versus untreated controls; assay type: in vivo, rat (Sprague Dawley S.P.F.); details: 10 days, esophagus tube, vs untreated controls
Description: This test was effected on groups of 8 male rats of the Sprague Dawley S.P.F. strain weighing about 200 g and the animals received a regime containing 50% of saccharose and which was rich in cholesterol (1%). The rats were treated over 10 days with the test products which were administered through an esophagus tube as a suspension in water containing carboxymethylcellulose. The animals were left without food 16 hours after the last administration of the test product and then killed by an abdominal puncture and from the blood sample with sodium heparinate, the levels of triglycerides, cholesterol and total lipids were determined by the following methods.
The triglyceride level was determined by the semiautomatic technique of Kessler et al [Automation in Analytical Chemistry, 1965, p. 341] modified by Claude et al [Ann. Biol. Clin., Vol. 26 3-4 (1968), p. 451]. The cholesterol levels were determined by the technique of Levine [Symposium Technicon, Vol. I, (1967), p. 25] adapted to auto-analyzer system I. The nephelometric level of total lipids was determined semi-automatically by the method of Girard et al. [Symposium Technicon, 1970]. The variations expressed in percentages of the level of triglycerides, cholesterol and total lipids after administration of the various dosage of the test products in the treated animals as compared to the untreated controls and the results are reported in Table I.

[2] = Acute toxicity in mice, DL50 dose; details: mouse, in vivo, ip, intraperitoneal, suspension in aqueous carboxymethylcellulose, observed one week
Description: The acute toxicity was determined on groups of 5 mice weighing about 18 to 22 g and the test products were intraperitoneally administered in suspension in an aqueous carboxymethylcellulose.

Structure (SMILES): C=CC1(c2ccccc2)OC(C(=O)OC)Oc2ccc(Cl)cc21 (single isomer, unassigned) [Example 22, methyl 6-chloro-4-phenyl-4-ethenyl-[4H]-1,3-benzodioxin-2-carboxylate]
- % Variation of levels, Cholesterol ([1]; 5 mg/kg day): -35%
- % Variation of levels, Total Lipids ([1]; 5 mg/kg day): -34%
- % Variation of levels, Triglycerides ([1]; 5 mg/kg day): -79%
- LD50 at 168 h [2]: ~700 mg/kg

Structure (SMILES): COC(=O)C1Oc2ccc(OC)cc2C(C)(c2ccccc2)O1 (single isomer, unassigned) [Example 30, methyl 6-methoxy-4-methyl-4-phenyl-[4H]-1,3-benzodioxin-2-carboxylate]
- % Variation of levels, Cholesterol ([1]; 5 mg/kg day): -43%
- % Variation of levels, Total Lipids ([1]; 5 mg/kg day): -41%
- % Variation of levels, Triglycerides ([1]; 5 mg/kg day): -33%
- LD50 at 168 h [2]: > 1000 mg/kg

Structure (SMILES): COC(=O)C1Oc2ccc(Cl)cc2C(Cc2ccccc2)(c2ccccc2)O1 (single isomer, unassigned) [Example 32, methyl 6-chloro-4-phenyl-4-benzyl-[4H]-1,3-benzodioxin-2-carboxylate]
- % Variation of levels, Cholesterol ([1]; 5 mg/kg day): -45%
- % Variation of levels, Total Lipids ([1]; 5 mg/kg day): -41%
- % Variation of levels, Triglycerides ([1]; 5 mg/kg day): -11%
- LD50 at 168 h [2]: > 1000 mg/kg

Structure (SMILES): CCC1(CC)OC(C(=O)O)Oc2ccc(Cl)cc21 (stereo not drawn) [Example 1, 6-chloro-4,4-diethyl-[4H]-1,3-benzodioxin-2-carboxylic acid]
- % Variation of levels, Cholesterol ([1]; 50 mg/kg day): -37%
- % Variation of levels, Total Lipids ([1]; 50 mg/kg day): -39%
- % Variation of levels, Triglycerides ([1]; 50 mg/kg day): -11%
- LD50 at 168 h [2]: 200 mg/kg

Structure (SMILES): CC1(C)OC(C(=O)O)Oc2ccc(Cl)cc21 (stereo not drawn) [Example 2, 6-chloro-4,4-dimethyl-[4H]-1,3-benzodioxin-2-carboxylic acid]
- % Variation of levels, Cholesterol ([1]; 50 mg/kg day): -23%
- % Variation of levels, Total Lipids ([1]; 50 mg/kg day): -28%
- % Variation of levels, Triglycerides ([1]; 50 mg/kg day): -11%
- LD50 at 168 h [2]: 450 mg/kg

Structure (SMILES): COC(=O)C1Oc2ccc(Cl)cc2C(C)(c2cccc(C(F)(F)F)c2)O1 (stereo not drawn) [Example 18]
- % Variation of levels, Cholesterol ([1]; 2 mg/kg day): -30%
- % Variation of levels, Total Lipids ([1]; 2 mg/kg day): -29%
- % Variation of levels, Triglycerides ([1]; 2 mg/kg day): -15%
- % Variation of levels, Cholesterol ([1]; 5 mg/kg day): -41%
- % Variation of levels, Total Lipids ([1]; 5 mg/kg day): -51%
- % Variation of levels, Triglycerides ([1]; 5 mg/kg day): -47%
- LD50 at 168 h [2]: > 1000 mg/kg
